In patent US8895600B2, “Non peptidic 14-3-3 inhibitors and the use thereof” (Università degli Studi di Siena, priority 2010, dated 2014):

Legend:
[1] = system: Ba/F3 cells expressing T315I mutation; assay: Apoptosis induction, cytofluorimetric Annexin V and PI uptake, T315I; assay type: cell-based, murine; conditions: IM 1 μM for 24 h, BV02 5 μM for 24 h
Method: Briefly, the authors assessed the reduction of colony (aggregates containing >50 cells generated in 0.9% methylcellulose supplemented with 30% FCS) number in Bcr-Abl-expressing Ba/F3 cell lines and CD34+ in presence of BV02 increasing doses after 7 or 14 day incubation, respectively, at 37° C. in fully humidified atmosphere and 5% CO2. Linear and non linear regression analyses were used to calculate BV02 LD50 in Bcr-Ablexpressing Ba/F3 cell lines and CD34+ progenitors from CML patients, respectively. Apoptosis induction and involved signals were assayed in Bcr-Abl-expressing Ba/F3 cell lines after 24 h exposure to 1 μM IM and 5 μM BV02 by means of cytofluorimetric analysis of Annexin V (Hoffmann-La Roche, Basel, SW) and PI (Sigma) uptake, Western blot and IP/immunoblotting analyses, according to published methods (Mancini, 2009).

[2] = system: Ba/F3 Parental cells (lacking Bcr-Abl); assay: Clonogenic assay (0.9% methylcellulose), parental Ba/F3; assay type: cell-based, murine; conditions: dose reducing cell clonogenic potential to 50%
Source text: (§1) Parental pro-B murine cell line Ba/F3 and clones expressing the wt and T315I and E255K-mutated Bcr-Abl constructs were kindly donated by Michael W Deininger (Department of Hematology and Clinical Oncology, Health and Science University, Cancer Institute, Portland, Oreg., USA). They were maintained in RPMI medium (Gibco, Paisley, 9 JPET#172536 UK) supplemented with 10% FCS (Gibco), 1% I-glutamine (Sigma, St. Louis, Miss., USA) and 10% WEHI 3 conditioned medium as source of IL-3 when required. […] The content of CD34+ cells in each sample was measured by cytofluorimetric analysis of CD34 expression with a FacScan (Becton Dickinson, Franklin Land, PI, USA). […] BV02 cytotoxicy was assayed in clonogenic assays, the best in vitro technique to quantify drug impact on cell reproductive integrity.
(§2) Briefly, the authors assessed the reduction of colony (aggregates containing >50 cells generated in 0.9% methylcellulose supplemented with 30% FCS) number in Bcr-Abl-expressing Ba/F3 cell lines and CD34+ in presence of BV02 increasing doses after 7 or 14 day incubation, respectively, at 37° C. in fully humidified atmosphere and 5% CO2. […]
(§3) Cell cycle distribution was performed on 1×10^6 cells fixed overnight in 70% ethanol and treated with 1 μg/μL 11 JPET#172536 PI and RNAse (Sigma) at 37° C. for 30′. […] Apoptosis was quantified as the level of fluorescence emitted from FLICA probes bound to caspases. […]

[3] = system: Ba/F3 cells expressing the wild type Bcr-Abl; assay: Clonogenic assay (0.9% methylcellulose), Ba/F3 wt Bcr-Abl; assay type: cell-based, murine; conditions: Ba/F3 p210Bcr-Abl WT, dose reducing cell clonogenic potential to 50%
Source text: (§4) Parental pro-B murine cell line Ba/F3 and clones expressing the wt and T315I and E255K-mutated Bcr-Abl constructs were kindly donated by Michael W Deininger (Department of Hematology and Clinical Oncology, Health and Science University, Cancer Institute, Portland, Oreg., USA). […] Indirect immuno-magnetic labeling (mini-MACS from Milteny Biotech, Bergish Gladback, Germany) was used to isolate CD34+ hematopoietic progenitors from bone marrow samples of 3 CML patients in blast crisis who developed IM resistance. Patient informed consent to use bone marrow samples for our experimental studies was approved by the Ethical Committee of S. Orsola-Malpighi Hospital (Bologna, Italy). The content of CD34+ cells in each sample was measured by cytofluorimetric analysis of CD34 expression with a FacScan (Becton Dickinson, Franklin Land, PI, USA).
(§5) Briefly, the authors assessed the reduction of colony (aggregates containing >50 cells generated in 0.9% methylcellulose supplemented with 30% FCS) number in Bcr-Abl-expressing Ba/F3 cell lines and CD34+ in presence of BV02 increasing doses after 7 or 14 day incubation, respectively, at 37° C. in fully humidified atmosphere and 5% CO2. Linear and non linear regression analyses were used to calculate BV02 LD50 in Bcr-Ablexpressing Ba/F3 cell lines and CD34+ progenitors from CML patients, respectively.
(§6) PI uptake was measured by mean of a FACScan flow cytometer set at >580 nm and a dedicated software (both from Beckton Dickinson, San Jose, Calif., USA). Caspase-8 activity was detected with a commercial kit (Carboxyfluorescein FLICA Apoptosis Detection kits from Immunochemistry Technologies LLC, Bloomington, Minn., USA) according to manufacturer instructions. […] Apoptosis was quantified as the level of fluorescence emitted from FLICA probes bound to caspases. […] Caspase-8 activity was quantified by mean of a dedicated software (DIVA from Becton Dickinson). Cell response to BV-01 and BV-02 was evaluated in clonogenic assays (0.9% methylcellulose additioned with drug scalar doses) (see Methods above for methodological details).

[4] = system: Ba/F3 cells expressing the Bcr-Abl mutation coding for E255K; assay: Clonogenic assay (0.9% methylcellulose), Ba/F3 E255K Bcr-Abl; assay type: cell-based, murine; conditions: Ba/F3 p210Bcr-Abl E255K; dose reducing cell clonogenic potential to 50%
Source text: as §1, §2, §3

[5] = system: Ba/F3 cells expressing the T315I Bcr-Abl mutation; assay: Clonogenic assay (0.9% methylcellulose), Ba/F3 T315I Bcr-Abl; assay type: cell-based, murine; conditions: Ba/F3 p210Bcr-Abl T315I, dose reducing cell clonogenic potential to 50%
Source text: as §4, §5, §6

14-3-3σ = target: T1, 14-3-3σ (Homo sapiens, UniProt P31947); assay: Transferred NOE (tr-NOEs) NMR binding experiment; conditions: 298K; protein concentration 10 fold less than ligand
T1 sequence (P31947 1-248): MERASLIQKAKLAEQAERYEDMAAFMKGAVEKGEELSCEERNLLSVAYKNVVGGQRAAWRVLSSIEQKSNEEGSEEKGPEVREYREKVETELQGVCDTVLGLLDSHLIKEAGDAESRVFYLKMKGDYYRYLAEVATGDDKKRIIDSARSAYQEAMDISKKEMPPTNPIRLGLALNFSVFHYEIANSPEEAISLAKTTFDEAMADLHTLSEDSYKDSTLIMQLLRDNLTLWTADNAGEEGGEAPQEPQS
Method: The binding ability of BV-01 was analyzed by transferred Nuclear Overhauser Enhancement experiments (tr-NOEs). Experiments were recorded (at 298K on Bruker Avance 600) both on the free ligand and in the presence of protein in concentration 10 fold less than ligand. In the tr-NOEs experiments, only ligands in fast exchange between the bound and the free form are observed. Since the NOE effects are directly related to the size of the molecule in solution, by binding to the protein, the ligands NOE change in intensity and appearance allowing an easy detection of the binding.

[6] = system: CD34+ cells from bone marrow of CML patients in blast crisis with T315I mutation; assay: Clonogenic assay on CD34+ progenitors of IM-resistant CML patients; assay type: cell-based, human; conditions: three CML patients in blast crisis
Source text: as §1, with “required. Indirect immuno-magnetic labeling (mini-MACS from Milteny Biotech, Bergish Gladback, Germany) was used to isolate CD34+ hematopoietic progenitors from bone marrow samples of 3 CML patients in blast crisis who developed IM resistance.” for “required.”
as §2

[7] = system: Ba/F3 cells expressing the wild type Bcr-Abl protein; assay: Apoptosis induction, cytofluorimetric Annexin V and PI uptake, wt Bcr-Abl; assay type: cell-based, murine; conditions: IM 1 μM for 24 h, BV02 5 μM for 24 h
[8] = system: c-Abl / 14-3-3σ signalling in wt Bcr-Abl-expressing Ba/F3 cells; assay: Western blot and IP/immunoblotting of sub-cellular fractions, wt Bcr-Abl Ba/F3; assay type: cell-based, murine; conditions: 24 h, 1 μM IM or 5 μM BV02; for interaction between c-Abl and 14-3-3σ: IP/immunoblotting
Method: Nuclear lysates were obtained from naked nuclei recovered from 2×10^7 cells kept in buffer B (10 mM NaCl, 5 mM MgCl2, 10 mM phosphate buffer and 0.1% Tergitol-type detergent NP40 [all from Sigma] supplemente with protease inhibitors) by means of 3 sonication rounds (10′ pulses using a Hight Intensity Ultrasonic Processor/Sonicator from Cole Parmer [Vernon Hills, Ill., USA] equipped with 2 mm tips). Mitochondrial membranes were separated from whole cell lysates by 30′ centrifugation at 14,000 g in 2 mL buffer C (20 mM Hepes pH 7.5, 1.5 mM MgCl2, 10 mM KCl, 1 mM EDTA, 1 mM EGTA, 1 mM dithiothreitol, 0.1% PMS and protease inhibitors in 250 mM sucrose) at 4° C.
Proteins or IP products obtained through overnight incubation with primary antibodies in Buffer D (250 mM NaCl, 15 mM MgCl2 40 mM Hepes, 60 mM glycerophosphate supplemented with protease inhibitors) were resolved in SDSPAGE. Gels were then transferred onto nitrocellulose membranes (Schleicher & Schuel, Dassel, Germany), labelled with primary and secondary antibodies in TBS with 5% BSA (Sigma) and 0.1% Tween20 (Sigma). The antibodies were purchased from Upstate Biotechnology (Lake Placid, N.Y., USA), Cell Signalling (Danvers, Mass., USA) and Santa Cruz Biotechnology (Santa Cruz, Calif., USA). Signals were visualized by the enhanced chemo-luminescence detection system ECL from Pierce (Rockford, Ill., USA). Signal intensities in single blots obtained from three individual experiments were quantified by mean of a dedicated software (Launch VisionWorks LS, Upland, Calif., USA).
(§7) The statistical significance of differences in signal intensities relative to cell treatments was assessed by mean of paired Student's t-test; p<0.05 was kept as limit for statistical significance.

[9] = system: c-Abl / 14-3-3σ signalling in Ba/F3 cells expressing T315I Bcr-Abl mutation; assay: Western blot and IP/immunoblotting of sub-cellular fractions, T315I Bcr-Abl Ba/F3; assay type: cell-based, murine
Method: as §5, with “respectively. […]” for “respectively.”
Proteins or IP products obtained through overnight incubation with primary antibodies in Buffer D (250 mM NaCl, 15 mM MgCl2 40 mM Hepes, 60 mM glycerophosphate supplemented with protease inhibitors) were resolved in SDSPAGE. […] Signals were visualized by the enhanced chemo-luminescence detection system ECL from Pierce (Rockford, Ill., USA). Signal intensities in single blots obtained from three individual experiments were quantified by mean of a dedicated software (Launch VisionWorks LS, Upland, Calif., USA).
as §7

Structure (SMILES): Cc1ccc(NC(=O)c2ccc(CN3CCN(C)CC3)cc2)cc1Nc1nccc(-c2cccnc2)n1 [Imatinib, reference compound]
- apoptosis induction (impact on survival) [1]: not on survival of Ba/F3 cells expressing T315I mutation

Structure (SMILES): CCCCCCOC(=O)c1ccc(Nc2c([N+](=O)[O-])cc(C(=O)O)cc2[N+](=O)[O-])cc1 [BV-01]
- LD50 [2]: 1.89 µM
- LD50 [3]: 1.41 µM
- LD50 [4]: 1.28 µM
- LD50 [5]: 1.70 µM
- tr-NOEs pattern (binding to 14-3-3σ) (14-3-3σ): weak interaction

Structure (SMILES): Cc1c(NC(=O)c2cc(C(=O)O)ccc2C(=O)O)c(=O)n(-c2ccccc2)n1C [BV-02]
- LD50 [2]: 1.08 µM
- LD50 [3]: 1.04 µM
- LD50 ([3]; listed as BV02): 1.04 ± 0.09 µM
- LD50 [4]: 1.21 µM
- LD50 [5]: 1.47 µM
- LD50 ([5]; listed as BV02): 1.47 ± 0.12 µM
- cytotoxicity in CD34+ cells (survival curves) [6]: confirmed
- apoptosis induction (impact on survival) [7]: statistically significant impact
- apoptosis induction (impact on survival) [1]: statistically significant impact
- interaction between c-Abl and 14-3-3σ ([8]; cytoplasm): mediates c-Abl release from 14-3-3σ
- interaction between c-Abl and 14-3-3σ ([8]; cytoplasm, listed as BV02): reduction
- c-Abl (145 kDa) level ([8]; cytoplasm): reduction
- c-Abl interaction with caspase 9 ([8]; cytoplasm): increase
- c-Abl phosphorylation at Tyr245 ([8]; cytoplasm): not affected
- caspase 9 (p35) and caspase 8 (p18) activated fragments ([8]; cytoplasm): increase
- levels of 14-3-3σ ([8]; cytoplasm): left steady
- phosphorylation of p210 Bcr-Abl at Tyr245 ([8]; cytoplasm): did not significantly affect
- c-Abl (145 and 60 kDa), caspase 9 (p35), caspase 8 (p18) and t-Bid (p15) at mitochondrial membranes ([8]; mitochondrial membranes): significantly raised
- c-Abl (145 and 120 kDa) and p27kip1 in the nuclear compartment ([8]; nuclear compartment): significantly increased
- c-Abl release from 14-3-3σ, relocation and apoptotic events ([9]; T315I Ba/F3): elecited all above mentioned events
- Tyr245 phosphorylation of normal and Bcr-rearranged c-Abl ([9]; T315I Ba/F3 after exposure to BV02): slight increase
